Measurements taken from US10124008B2, “Use of inhibitors of acid sphingomyelinase to treat acquired and inherited retinal degenerations” (Wisconsin Alumni Research Foundation, priority 2014, dated 2018).

Legend:
Format in all cases: cell-based, porcine
[1] = test system: CD59 on polarized primary RPE; test: Surface CD59 staining; details: RPE with A2E; short treatment with desipramine
Experimental: AlexaFluor secondary antibodies were used at 1:500. Filters were mounted under coverslips on glass slides under VECTASHIELD (Vector labs), sealed and visualized with Andor Revolution XD spinning disk confocal microscope using 60×1.4 NA or 100×1.49 NA oil objectives with identical exposures and gains for each antibody. Quantification of surface CD59 staining was performed using Imaris.

[2] = test system: primary RPE monolayers; test: Reactive oxygen species assay (CELLROX) after 10% NHS; details: RPE with A2E, short treatment with desipramine
Experimental: Reactive oxygen species (ROS) generation was measured using […] Deep Red (Molecular Probes, #10422) according to manufacturer's recommendation. After 10% NHS treatment, medium containing NHS was removed and cells were rinsed with HBSS before incubation in 5 μM […] reagent at 37° C. for 30 min. Cells were rinsed 3 times with PBS and fluorescence was read with microplate reader at Ex/Em of 640/665. For normalization purposes, cells were fixed, stained with DAPI, and fluorescence was read at Ex/Em: 360/460.

[3] = test system: acetylated tubulin in polarized primary RPE; test: Immunofluorescence staining of acetylated and tyrosinated tubulin; details: inhibitors 10 μM for 3 h, 48 h after A2E treatment
Experimental: ALEXAFLUOR secondary antibodies were used at 1:500 and rhodamine-phalloidin (Cytoskeleton, PHDR1) at 1:200. Filters were mounted under coverslips on glass slides under […] (Vector labs), sealed and visualized with Andor Revolution XD spinning disk confocal microscope using a 60×1.4 NA oil objective with identical exposures and gains for each antibody. Acetylated tubulin-labeled stable microtubules (≥5 μm in length) after nocodazole treatment were analyzed manually in the Surpass mode of Imaris (Bitplane).
We performed two initial screens: first, we compared the ability of functional inhibitors (fluoxetine and amitriptyline) with that of the lone structural ASMase inhibitor zoledronic acid in decreasing acetylated tubulin. Here, polarized RPE monolayers with or without A2E were treated with one of the three inhibitors (10 μM, 3 h). Desipramine as a positive control. At the end of the incubation period, cells were fixed and stained for acetylated tubulin, imaged and the amount of acetylated tubulin in the cells was quantified. Second, we evaluated three additional drugs (sertraline, astemizole and fexofenadine) for their abilities to increase autophagy in the RPE. Cells with or without bisretinoids were transfected with mRFP-GFP-LC3, starved to induce autophagy, treated with drugs and imaged as in FIG. 9D.

[4] = test system: primary RPE monolayers; test: Lysosome exocytosis (surface LAMP2) after 10% normal human serum; details: RPE with A2E, complement attack; short treatment with desipramine
Experimental: Cells were rinsed in recording medium (HBSS with 4.5 g/L glucose, 20 mM HEPES) and incubated with ionomycin or […] normal human serum (Quidel) for 10 min at 37° C. Filters were immediately transferred to ice and analyzed for surface LAMP2 or β-hex activity (see below).
Cells were stained with mouse monoclonal antibody to the lumenal domain of Lamp2 (Serotec, MCA2558, 1:500) (48) or C5b-9 (Novus, NBP1-05120, 1:100) at 4° C. for 30 min. The antibody was diluted in PBS supplemented with Ca^2+ and Mg^2++1% BSA. Cells were then fixed with 2% PFA for 5 min on ice, permeabilized, and stained for ZO-1 as detailed above. Alexa-conjugated secondary antibodies (INVITROGEN) were used at 1:500 for 30 min. Cells were imaged by confocal microscopy (Andor Revolution XD) using a 60× 1.4 NA oil objective. For each set of experiments, the laser power, voltage and offset were identical for a given fluorophore. Quantification of Lamp2 staining was performed by obtaining the total fluorescence using the surface tool in Imaris (Bitplane).

[5] = test system: ceramide in primary RPE; test: Immunofluorescence staining for ceramide; details: desipramine treatment
Experimental: ALEXAFLUOR secondary antibodies were used at 1:500 and rhodamine-phalloidin (Cytoskeleton, PHDR1) at 1:200. Filters were mounted under coverslips on glass slides under VECTASHIELD (Vector labs), sealed and visualized with Andor Revolution XD spinning disk confocal microscope using a 60×1.4 NA oil objective with identical exposures and gains for each antibody. Acetylated tubulin-labeled stable microtubules (≥5 μm in length) after nocodazole treatment were analyzed manually in the Surpass mode of Imaris (Bitplane).

[6] = test system: EGFP-LC3-labeled autophagosomes in primary RPE; test: Live imaging of EGFP-LC3 autophagosome trafficking (spinning disk, Boolean gating); details: desipramine 10 μM for 3 h
Experimental: RPE cells were transfected with EGFP-LC3 or tandem fluorescent mRFP-GFP-LC3 (Addgene) using the AMAXA NUCLEOFECTOR II (Lonza). Approximately 1.5 million cells and 5 μg of plasmid DNA were used for each transfection. Cells were plated either on serum-coated glass-bottom dishes (Mattek) or TRANSWELL filters at confluence. Live imaging of autophagosome traffic and autophagic flux were performed on the Revolution XD spinning disk microscopy system (Andor) equipped with the Yokogawa CSU-X1 confocal spinning disk head, Nikon Eclipse Ti inverted microscope surrounded by an Okolab cage incubator, iXon x3 897 EM-CCD camera, Andor laser combiner with four solid state lasers at 405, 488, 561, and 640 nm and corresponding band-pass filter sets (Sutter), and ASI motorized stage with piezo-Z for rapid Z-stack acquisition. Andor IQ2 software was used for image acquisition and Imaris x64 (Bitplane) for image analysis. For live imaging, cells were serum starved for 2 h to induce autophagy and rapid z-stacks were acquired using the 100×1.49 NA Apo TIRF objective (Nikon) for ˜50 frames at 37° C. Trafficking data was collected from three separate transfections for a total of at least 12-30 movies captured for treatment. During image acquisition care was taken to maintain the same laser power, exposure and electron-multiplying gain settings. Trafficking analysis was carried out using the Spots and Tracks modules of the Imaris software (Liu et al., 2010). After background subtraction (using the background subtraction algorithm and identical automatic threshold for all images) and smoothing (Gaussian algorithm with identical threshold settings for all images), Spots and Tracks algorithms were used to identify vesicles and follow them through time and cell-space to obtain total track length and track displacement. […] Data were analyzed using either a two-tailed t-test or one-way ANOVA followed by Bonferroni or Dunnett's post-tests (GraphPad PRISM). Unless otherwise stated, data are presented as Mean±S.E.M. of ≥3 independent experiments, with 3 to 4 replicates per condition per experiment. […] Regions were defined by: minimum or maximum track length, minimum or maximum displacement and a slope of 0.5 (displacement divided by length). Tracks with slope <0.5 were taken as less straight (region 2) than those with slope of >0.5 (region 3). Tracks within each region are represented as a percent of total number of tracks in Tables 1 and 2. One-way ANOVA or t-tests were used to compare regions between treatment groups. […] To examine the efficiency of autophagosome transport, Spots and Tracks algorithms in Imaris were used to calculate how far each autophagosome traveled (track displacement length) as a function of the movement required to travel that distance (total track length) (Liu et al., 2010).

[7] = percent of total EGFP-LC3 tracks, serum-starved RPE

Structure (SMILES): CNCCCN1c2ccccc2CCc2ccccc21 [desipramine]
- surface CD59 levels [1]: increased surface CD59 levels
- ROS levels after complement attack [2]: decreased ROS levels after complement attack
- ROS levels after complement attack ([2]; listed as Desipramine): prevented mitochondrial oxidative damage after complement attack
- acetylated tubulin in RPE with A2E [3]: decreased acetylated tubulin in cells with A2E
- lysosome exocytosis [4]: restored lysosome exocytosis
- ceramide levels [5]: decreased ASMase activity and ceramide levels
- number of motile tracks and long-range displacement of autophagosomes ([6]; RPE cells with A2E): increased both the number of motile tracks and long-range displacement of autophagosomes
- Region 1 (R1) (D <2.5 μm, L <10 μm) [6, 7]: 84.28%
- Region 3 (R3) (L >10 μm, Slope >0.5 μm) [6, 7]: 7.93%
